This test has as its target T1, human wild-type (WT)-pendrin (Homo sapiens, UniProt O43511).
T1 construct: expressed in transfected cells
T1 sequence (O43511 1-780): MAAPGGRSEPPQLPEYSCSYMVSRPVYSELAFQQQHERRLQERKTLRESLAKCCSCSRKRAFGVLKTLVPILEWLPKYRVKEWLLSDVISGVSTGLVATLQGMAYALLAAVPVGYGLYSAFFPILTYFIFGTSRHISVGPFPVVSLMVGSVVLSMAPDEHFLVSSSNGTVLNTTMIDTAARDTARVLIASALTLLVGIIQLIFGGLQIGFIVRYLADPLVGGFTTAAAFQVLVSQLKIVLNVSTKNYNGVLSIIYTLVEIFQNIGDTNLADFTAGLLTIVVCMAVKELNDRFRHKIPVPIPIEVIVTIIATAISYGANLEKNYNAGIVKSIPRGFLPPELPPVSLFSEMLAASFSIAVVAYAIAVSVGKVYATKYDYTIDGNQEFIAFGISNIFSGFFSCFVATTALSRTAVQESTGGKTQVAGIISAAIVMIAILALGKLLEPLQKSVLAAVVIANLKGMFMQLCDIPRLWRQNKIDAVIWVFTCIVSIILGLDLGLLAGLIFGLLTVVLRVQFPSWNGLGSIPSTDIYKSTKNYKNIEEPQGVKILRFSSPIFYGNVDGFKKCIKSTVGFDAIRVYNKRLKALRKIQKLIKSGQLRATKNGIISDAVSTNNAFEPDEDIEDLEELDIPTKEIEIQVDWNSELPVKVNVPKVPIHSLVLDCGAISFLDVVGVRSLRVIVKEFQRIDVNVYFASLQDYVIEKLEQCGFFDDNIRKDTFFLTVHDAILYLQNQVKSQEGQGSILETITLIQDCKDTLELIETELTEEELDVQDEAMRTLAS
In words: Pendrin Cl−/I− exchange inhibitory activity, YFP fluorescence in CHO-K1 cells. Conditions: CHO-K1; for inhibition at 1 µM: compound concentration 1 μM; for inhibition at 3 µM: compound concentration 3 μM; for inhibition at 10 µM: compound concentration 10 μM; for inhibition at 30 µM: compound concentration 30 μM; for inhibition at 100 µM: compound concentration 100 μM. The test is classed as cell-based. Here is the method:
Chinese hamster ovary (CHO)-K1 cells were cultured in DMEM medium containing 10% fetal bovine serum (FBS), 100 units/ml of penicillin and 100 μg/ml streptomycin. CHO-K1 cells were stably transfected with pcDNA3.1 encoding the halide sensor YFP-H148Q/I152L/F46L and human wild-type (WT)-pendrin.
(§1) CHO-K1 cells expressing human WT pendrin and YFP-F46L/H148Q/I152L were plated in 96-well microplates at a density of 2×10^4 cells per well, and cultured for 48 hours. Each well of the cell cultured 96-well plate was washed 2 times with 200 μL of PBS, and filled with 50 μL of HEPES buffered solution (140 mM NaCl, 5 mM KCl, 1 mM MgCl2, 1 mM CaCl2), 10 mM glucose and 10 mM HEPES (pH 7.4)). Test compounds (1 μL) were added to a final concentration of 1, 3, 10, 30 and 100 μM. After culturing at 37° C. for 10 minutes, the 96-well plate was located on the FLUOstar Omega Microplate Reader (BMG Labtech, Ortenberg, Germany) for a fluorescence assay. Fluorescence was recorded continuously (400 ms per point) for 1 second (baseline), whereby each well was assayed individually for pendrin-mediated I-influx. Then 50 μL of Na-substituted HEPES buffered solution (replacing NaCl with NaI) was added using a liquid injector at 1 second, and YFP fluorescence was recorded for 5 seconds. The initial iodide influx rate was determined from the initial slope of fluorescence by nonlinear regression, after the injection of iodide.
as §1, with “Chinese hamster ovary (CHO)-K1 cells were cultured in DMEM medium containing 10% fetal bovine serum (FBS), 100 units/ml of penicillin and 100 μg/ml streptomycin. CHO-K1 cells were stably transfected with pcDNA3.1 encoding the halide sensor YFP-H148Q/I152L/F46L and human wild-type (WT)-pendrin. 3-2: Assay of Cl^−/I^− exchange activity CHO-K1” for “CHO-K1”, “50” for “1, 3, 10, 30 and 100”, “Then,” for “Then”, “NaI-substituted” for “Na-substituted”

Consider `Cc1cccc(C)c1N1CCN(C(=O)Cc2c(C(=O)O)[nH]c3ccc(F)cc23)CC1` [YPI-A4964, 3-(2-(4-(2,6-Dimethylphenyl)piperazin-1-yl)-2-oxoethyl)-5-fluoro-1H-indole-2-carboxylic acid], for which the inhibition at 1 µM is under 20%, the inhibition at 3 µM is under 20%, at 10 µM the inhibition was 51.4% and at 30 µM the inhibition was 88.9%.
`O=C(O)c1[nH]c2ccc(Cl)cc2c1CC(=O)N1CCN(c2ccc(C(F)(F)F)cc2)CC1` [YPI-A4779, 5-Chloro-3-(2-oxo-2-(4-(4-(trifluoromethyl)phenyl)piperazin-1-yl)ethyl)-1H-indole-2-carboxylic acid] gave an inhibition at 1 µM of under 20%, an inhibition at 3 µM of under 20%, an inhibition at 10 µM of 66.7% and an inhibition at 30 µM of 92.7%. In addition, 100 µM produced 95.3% inhibition.
With `Cc1ccc2[nH]c(C(=O)O)c(CC(=O)N3CCN(c4c(C)cccc4C)CC3)c2c1` [YPI-A4946, 3-(2-(4-(2,6-Dimethylphenyl)piperazin-1-yl)-2-oxoethyl)-5-methyl-1H-indole-2-carboxylic acid], testing at 1 µM gave an inhibition of 22.4%, the inhibition at 3 µM was found to be 56.9%, the inhibition at 10 µM came out at 82.3% and the inhibition at 30 µM came out at 94.5%. Also, at 100 µM the inhibition was 95.6%.
As for `O=C(O)c1[nH]c2ccc(Cl)cc2c1CC(=O)N1CCN(c2ccc(Br)cc2)CC1` [YPI-A4846, 3-(2-(4-(4-Bromophenyl)piperazin-1-yl)-2-oxoethyl)-5-chloro-1H-indole-2-carboxylic acid], the inhibition at 1 µM is under 20%, the inhibition at 3 µM is under 20%, 10 µM produced 73.3% inhibition and at 30 µM the inhibition was 94.7%.
`O=C(O)c1[nH]c2ccc(Cl)cc2c1CC(=O)N1CCN(c2ccccc2)CC1` [YPI-A4881, 5-Chloro-3-(2-oxo-2-(4-phenylpiperazin-1-yl)ethyl)-1H-indole-2-carboxylic acid] yielded an inhibition at 1 µM of under 20%, an inhibition at 3 µM of under 20%, an inhibition at 10 µM of under 20% and an inhibition at 30 µM of under 20%. The inhibition at 100 µM is 40.2%.
The compound `Cc1cccc(N2CCN(C(=O)Cc3c(C(=O)O)[nH]c4ccc(Cl)cc34)CC2)c1` [YPI-A4848, 5-Chloro-3-(2-oxo-2-(4-(m-tolyl)piperazin-1-yl)ethyl)-1H-indole-2-carboxylic acid] came in with an inhibition at 1 µM of under 20%, an inhibition at 3 µM of under 20%, an inhibition at 10 µM of under 20% and an inhibition at 30 µM of 58.9%. For the same compound, the inhibition at 100 µM is 90.5%.
Take `O=C(O)c1[nH]c2ccc(Cl)cc2c1CC(=O)N1CCN(c2ccc(Cl)cc2)CC1` [YPI-A4843, 5-Chloro-3-(2-(4-(4-chlorophenyl)piperazin-1-yl)-2-oxoethyl)-1H-indole-2-carboxylic acid]: the inhibition at 1 µM was under 20%, the inhibition at 3 µM is under 20%, the inhibition at 10 µM is 40.3% and the inhibition at 30 µM came out at 91.4%. The same compound had an inhibition at 100 µM of 92.1%.
As to `CC1CN(C(=O)Cc2c(C(=O)O)[nH]c3ccc(Cl)cc23)CCN1c1ccccc1` (stereo not shown) [YPI-A4883, 5-Chloro-3-(2-(3-methyl-4-phenylpiperazin-1-yl)-2-oxoethyl)-1H-indole-2-carboxylic acid], the inhibition at 1 µM is under 20%, the inhibition at 3 µM was under 20%, the inhibition at 10 µM is under 20% and the inhibition at 30 µM was under 20%. The inhibition at 100 µM was under 20%.
In turn, `Cc1ccc(N2CCN(C(=O)Cc3c(C(=O)O)[nH]c4ccc(Cl)cc34)CC2)c(C)c1` [YPI-A4801, 5-Chloro-3-(2-(4-(2,4-dimethylphenyl)piperazin-1-yl)-2-oxoethyl)-1H-indole-2-carboxylic acid] showed an inhibition at 1 µM of 40.9%, an inhibition at 3 µM of 72.8%, an inhibition at 10 µM of 95.4% and an inhibition at 30 µM of 96.7%. This compound came in with an inhibition at 100 µM of 97.4%.
In the same order, the values of `COc1cccc(N2CCN(C(=O)Cc3c(C(=O)O)[nH]c4ccc(Cl)cc34)CC2)c1` [YPI-A4877, 5-Chloro-3-(2-(4-(3-methoxyphenyl)piperazin-1-yl)-2-oxoethyl)-1H-indole-2-carboxylic acid] are under 20%, under 20%, under 20%, under 20% and 67.5%.
The compound `Cc1ccc2[nH]c(C(=O)O)c(CC(=O)N3CCN(c4ccc(C(C)(C)C)cc4)CC3)c2c1` [YPI-A4944, 3-(2-(4-(4-(Tert-butyl)phenyl)piperazin-1-yl)-2-oxoethyl)-5-methyl-1H-indole-2-carboxylic acid] had an inhibition at 1 µM of under 20%, an inhibition at 3 µM of under 20%, an inhibition at 10 µM of 45.4% and an inhibition at 30 µM of 76.2%. The compound also yielded an inhibition at 100 µM of 77.3%.
Regarding `Cc1ccccc1N1CCN(C(=O)Cc2c(C(=O)O)[nH]c3ccc(Cl)cc23)CC1` [YPI-A4847, 5-Chloro-3-(2-oxo-2-(4-(o-tolyl)piperazin-1-yl)ethyl)-1H-indole-2-carboxylic acid], the inhibition at 1 µM was under 20%, the inhibition at 3 µM is under 20%, testing at 10 µM gave an inhibition of 60.6% and at 30 µM the inhibition was 91.5%. This compound also registered an inhibition at 100 µM of 92.4%.
On to `O=C(O)c1[nH]c2ccc(Cl)cc2c1CC(=O)N1CCN(c2ccc(F)cc2Cl)CC1` [YPI-A4885, 5-Chloro-3-(2-(4-(2-chloro-4-fluorophenyl)piperazin-1-yl)-2-oxoethyl)-1H-indole-2-carboxylic acid], for which the inhibition at 1 µM is under 20%, the inhibition at 3 µM was under 20%, at 10 µM the inhibition was 69.1% and at 30 µM the inhibition was 83.7%. For the same compound, the inhibition at 100 µM came to 84.2%.
Consider `O=C(O)c1ccc(N2CCN(C(=O)Cc3c(C(=O)O)[nH]c4ccc(Cl)cc34)CC2)cc1` [YPI-A4919, 3-(2-(4-(4-Carboxyphenyl)piperazin-1-yl)-2-oxoethyl)-5-chloro-1H-indole-2-carboxylic acid], for which the inhibition at 1 µM was under 20%, the inhibition at 3 µM is under 20%, the inhibition at 10 µM was under 20% and the inhibition at 30 µM is under 20%. The compound further had an inhibition at 100 µM of under 20%.
For `CC(C)(C)OC(=O)N1CCN(C(=O)Cc2c(C(=O)O)[nH]c3ccc(Cl)cc23)CC1` [YPI-A4879, 3-(2-(4-(tert-butoxycarbonyl)piperazin-1-yl)-2-oxoethyl)-5-chloro-1H-indole-2-carboxylic acid], the inhibition at 1 µM is under 20%, the inhibition at 3 µM is under 20%, the inhibition at 10 µM is under 20% and the inhibition at 30 µM was under 20%. For the same compound, the inhibition at 100 µM is under 20%.

The record behind these values is patent publication US20240287042A1, “NOVEL COMPOUND HAVING INHIBITORY ACTIVITY AGAINST PENDRIN, AND PHARMACEUTICAL USES THEREOF” (UIF (University Industry Foundation), Yonsei University, priority 2021, published 2024).
